Test results reported in patent US20060069132A1, “Azolecarboxamide herbicides” (priority 2004, published 2006).

Legend:
Surinam grass = assay: Test B pre-/postemergence herbicide test; type: in vivo, Urochloa decumbens; conditions: for Surinam Grass plant response rating: postemergence, scale 0 (no effect) to 100 (complete control)
Summary of the method: (§1)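 Plants compared with untreated controls 13–15 days post-treatment and given a visual 0–100 injury score. Applications: preemergence to seeds; postemergence at 1- to 4-leaf (2–18 cm); paddy species flooded, 2-leaf stage. Vehicle non-phytotoxic, surfactant included.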

cocklebur = assay: Test B pre-/postemergence herbicide test; type: in vivo, Xanthium strumarium; conditions: for Cocklebur plant response rating: postemergence, scale 0 (no effect) to 100 (complete control)
Summary of the method: as §1

blackgrass = assay: Test B postemergence herbicide test; type: in vivo, Alopecurus myosuroides; conditions: postemergence, visual rating, scale 0 (no effect) to 100 (complete control)
Summary of the method: (§2)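 Formulated test chemicals went onto postemergence plants measuring 2 to 18 cm, at one to four leaves. For the paddy assay, species had reached two leaves. Scoring took place 13–15 days later by eye, relative to untreated plants, using 0 for no effect up to 100 for full control.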

pigweed = assay: Test B pre-/postemergence herbicide test; type: in vivo, Amaranthus retroflexus
Summary of the method: as §1

barnyardgrass [1] = assay: Test B pre-/postemergence herbicide test; type: in vivo, Echinochloa crus-galli; conditions: 0 = no effect, 100 = complete control, preemergence
Summary of the method: as §1

barnyardgrass [2] = assay: Test B flooded paddy test; type: in vivo, Echinochloa crus-galli; conditions: 1000 g ai/ha, scale 0 to 100 (0 no effect, 100 complete control)
Summary of the method: as §2

ducksalad [3] = assay: Test C flooded paddy test; type: in vivo, Heteranthera limosa
corn = assay: Test B pre-/postemergence herbicide test; type: in vivo, Zea mays; conditions: for Corn plant response rating: postemergence, scale 0 (no effect) to 100 (complete control)
Summary of the method: as §1

rice [4] = assay: Test B flooded paddy test; type: in vivo, Oryza sativa; conditions: 1000 g ai/ha, scale 0 to 100 (0 no effect, 100 complete control)
Summary of the method: as §2

ducksalad [5] = assay: Test B flooded paddy test; type: in vivo, Heteranthera limosa; conditions: 1000 g ai/ha, scale 0 to 100 (0 no effect, 100 complete control)
Summary of the method: as §2

wild oat = assay: Test B postemergence herbicide test; type: in vivo, Avena fatua; conditions: postemergence, visual rating, scale 0 (no effect) to 100 (complete control)
Summary of the method: (§3)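 Treated at 2-leaf (paddy) or 1–4-leaf, 2–18 cm (postemergence); greenhouse 13–15 d; visual score vs control, 0 none to 100 complete control; dash = not tested.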

[6] = system: smallflower umbrella sedge; assay: Test C flooded paddy test; type: in vivo, Cyperus difformis
barnyardgrass [7] = assay: Test C flooded paddy test; type: in vivo, Echinochloa crus-galli
Summary of the method: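 After a postemergence application at 1 to 4 leaves (plants 2–18 cm high), or at 2 leaves for barnyardgrass in flooded paddy, plants stayed in the greenhouse for 12 to 14 days. Damage was then judged visually relative to control plants, with 100 indicating complete control.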

wheat = assay: Test B postemergence herbicide test; type: in vivo, Triticum aestivum; design: key to Wheat plant response rating: 0 = no effect, 100 = complete control; conditions: postemergence, visual rating, scale 0 (no effect) to 100 (complete control)
Summary of the method: as §3

large crabgrass = assay: Test B pre-/postemergence herbicide test; type: in vivo, Digitaria sanguinalis; conditions: for Crabgrass, Large plant response rating: postemergence, scale 0 (no effect) to 100 (complete control)
Summary of the method: as §1

rice [8] = assay: Test C flooded paddy test; type: in vivo, Oryza sativa
Summary of the method: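 Injury scored visually against controls on a 0 (no effect) to 100 (complete control) scale, 12 to 14 days after treatment in greenhouse. Flooded paddy plants treated at 2-leaf stage; postemergence plants at 1- to 4-leaf stage, 2 to 18 cm tall.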

morningglory = assay: Test B pre-/postemergence herbicide test; type: in vivo, Ipomoea coccinea; conditions: for Morningglory plant response rating: postemergence, scale 0 (no effect) to 100 (complete control)
Summary of the method: as §1

[9] = system: small flower umbrella sedge; assay: Test B flooded paddy test; type: in vivo, Cyperus difformis; conditions: 1000 g ai/ha, scale 0 to 100 (0 no effect, 100 complete control)
Summary of the method: as §2

giant foxtail = assay: Test B pre-/postemergence herbicide test; type: in vivo, Setaria faberi; conditions: for Foxtail, Giant plant response rating: postemergence, scale 0 (no effect) to 100 (complete control)
Summary of the method: as §1

rice [10] = assay: Test B pre-/postemergence herbicide test; type: in vivo, Oryza sativa; conditions: 0 = no effect, 100 = complete control, preemergence
Summary of the method: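 Greenhouse pot assay with simultaneous preemergence (treated seed) and postemergence (2–18 cm seedlings) applications of surfactant-containing, non-phytotoxic solvent formulations. Response scored visually 13–15 days later on a 0–100 scale, 100 meaning complete control.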

lambsquarters = assay: Test B pre-/postemergence herbicide test; type: in vivo, Chenopodium album; conditions: for Lambsquarters plant response rating: postemergence, scale 0 (no effect) to 100 (complete control)
Summary of the method: as §1

velvetleaf = assay: Test B pre-/postemergence herbicide test; type: in vivo, Abutilon theophrasti; conditions: for Velvetleaf plant response rating: postemergence, scale 0 (no effect) to 100 (complete control)
Summary of the method: as §1

[11] = 125 g ai/ha, 0 = no effect, 100 = complete control, preemergence
[12] = 500 g ai/ha, visual rating, 0 = no effect, 100 = complete control, preemergence
[13] = 62 g ai/ha, scale 0 to 100 (0 no effect, 100 complete control)
[14] = 125 g ai/ha, scale 0 to 100 (0 no effect, 100 complete control)
[15] = 250 g ai/ha, scale of 0 to 100, 0 is no effect, 100 is complete control
[16] = 500 g ai/ha, visual rating after 12 to 14 days, scale 0 to 100 (0 no effect, 100 complete control)

SMILES: CCc1cn(C(C)(C)C)nc1C(=O)Nc1cc(C(=O)N(C)C)ccn1 [Compound 232]
- Surinam Grass plant response rating (0 to 100 scale) (Surinam grass; [11]): 0
- Plant response rating, Surinam Grass (Surinam grass; [12]): 30
- Surinam Grass plant response rating (Surinam grass; 125 g ai/ha, visual rating): 10
- Surinam Grass plant response rating (Surinam grass; 500 g ai/ha, visual rating): 20
- Cocklebur plant response rating (0 to 100 scale) (cocklebur; [11]): 0
- Plant response rating, Cocklebur (cocklebur; [12]): 0
- Cocklebur plant response rating (cocklebur; 125 g ai/ha, visual rating): 10
- Cocklebur plant response rating (cocklebur; 500 g ai/ha, visual rating): 30
- Blackgrass plant response rating (blackgrass; 125 g ai/ha): 0
- Blackgrass plant response rating (blackgrass; 500 g ai/ha): 0
- Pigweed plant response rating (0 to 100 scale) (pigweed; [11]): 90
- Plant response rating, Pigweed (pigweed; [12]): 90
- Pigweed plant response rating (pigweed; postemergence, 500 g ai/ha, visual rating, scale 0 (no effect) to 100 (complete control)): 40
- Barnyardgrass plant response rating (0 to 100 scale) (barnyardgrass [1]; 125 g ai/ha): 20
- Plant response rating, Barnyardgrass (barnyardgrass [1]; 500 g ai/ha, visual rating): 60
- Barnyardgrass plant response rating (barnyardgrass [2]): 40
- Ducksalad plant response rating (ducksalad [3]; [13]): 0
- Ducksalad plant response rating (ducksalad [3]; [14]): 0
- Ducksalad plant response rating (ducksalad [3]; [15]): 30
- Plant response rating, Ducksalad (ducksalad [3]; [16]): 80
- Corn plant response rating (0 to 100 scale) (corn; [11]): 0
- Plant response rating, Corn (corn; [12]): 0
- Corn plant response rating (corn; 125 g ai/ha, visual rating): 10
- Corn plant response rating (corn; 500 g ai/ha, visual rating): 20
- Rice plant response rating (rice [4]): 50
- Ducksalad plant response rating (ducksalad [5]): 80
- Oat, Wild plant response rating (wild oat; 125 g ai/ha): 0
- Oat, Wild plant response rating (wild oat; 500 g ai/ha): 0
- Sedge, Umbrella plant response rating [6, 13]: 0
- Sedge, Umbrella plant response rating [6, 14]: 35
- Sedge, Umbrella plant response rating [6, 15]: 55
- Plant response rating, Sedge, Umbrella [6, 16]: 85
- Barnyardgrass plant response rating (barnyardgrass [7]; [13]): 0
- Barnyardgrass plant response rating (barnyardgrass [7]; [14]): 0
- Barnyardgrass plant response rating (barnyardgrass [7]; [15]): 0
- Plant response rating, Barnyardgrass (barnyardgrass [7]; [16]): 15
- Wheat plant response rating (wheat; 125 g ai/ha): 0
- Wheat plant response rating (wheat; 500 g ai/ha): 0
- Crabgrass, Large plant response rating (0 to 100 scale) (large crabgrass; [11]): 60
- Plant response rating, Crabgrass, Large (large crabgrass; [12]): 100
- Crabgrass, Large plant response rating (large crabgrass; 125 g ai/ha, visual rating): 10
- Crabgrass, Large plant response rating (large crabgrass; 500 g ai/ha, visual rating): 20
- Rice plant response rating (rice [8]; [13]): 0
- Rice plant response rating (rice [8]; [14]): 20
- Rice plant response rating (rice [8]; [15]): 35
- Plant response rating, Rice (rice [8]; [16]): 60
- Morningglory plant response rating (0 to 100 scale) (morningglory; [11]): 10
- Plant response rating, Morningglory (morningglory; [12]): 20
- Morningglory plant response rating (morningglory; 125 g ai/ha, visual rating): 30
- Morningglory plant response rating (morningglory; 500 g ai/ha, visual rating): 70
- Sedge, Umbrella plant response rating [9]: 90
- Foxtail, Giant plant response rating (0 to 100 scale) (giant foxtail; [11]): 0
- Plant response rating, Foxtail, Giant (giant foxtail; [12]): 30
- Foxtail, Giant plant response rating (giant foxtail; 125 g ai/ha, visual rating): 10
- Foxtail, Giant plant response rating (giant foxtail; 500 g ai/ha, visual rating): 30
- Rice plant response rating (0 to 100 scale) (rice [10]; 125 g ai/ha): 10
- Plant response rating, Rice (rice [10]; 500 g ai/ha, visual rating): 50
- Lambsquarters plant response rating (0 to 100 scale) (lambsquarters; [11]): 80
- Plant response rating, Lambsquarters (lambsquarters; [12]): 90
- Lambsquarters plant response rating (lambsquarters; 125 g ai/ha, visual rating): 50
- Lambsquarters plant response rating (lambsquarters; 500 g ai/ha, visual rating): 60
- Velvetleaf plant response rating (0 to 100 scale) (velvetleaf; [11]): 20
- Plant response rating, Velvetleaf (velvetleaf; [12]): 40
- Velvetleaf plant response rating (velvetleaf; 125 g ai/ha, visual rating): 30
- Velvetleaf plant response rating (velvetleaf; 500 g ai/ha, visual rating): 40
